Laboratory results taken from patent US6172061A, “Pharmaceutical composition for antagonizing CCR5 comprising anilide derivative” (Takeda Chemical Industries, Ltd., priority 1997, dated 2001).

Tests used:
[1] = molecular target: T1, human CCR5 (Homo sapiens, UniProt P51681); experiment: inhibition of [^125 I]-RANTES binding to CHO/CCR5 cells (CCR5 antagonistic activity); details: Test Compound 1 μM, 100 pM [^125 I]-RANTES, room temperature 30 minutes; for inhibition at 1 µM: read-out: Inhibition Rate (%) to CCR5 binding
T1 construct: expressed in transfected cells; host or cells: CHO-K1 (plasmid pCKR5 in pcDNA3.1, geneticin-selected CHO/CCR5 cells)
T1 sequence (P51681 whole entry): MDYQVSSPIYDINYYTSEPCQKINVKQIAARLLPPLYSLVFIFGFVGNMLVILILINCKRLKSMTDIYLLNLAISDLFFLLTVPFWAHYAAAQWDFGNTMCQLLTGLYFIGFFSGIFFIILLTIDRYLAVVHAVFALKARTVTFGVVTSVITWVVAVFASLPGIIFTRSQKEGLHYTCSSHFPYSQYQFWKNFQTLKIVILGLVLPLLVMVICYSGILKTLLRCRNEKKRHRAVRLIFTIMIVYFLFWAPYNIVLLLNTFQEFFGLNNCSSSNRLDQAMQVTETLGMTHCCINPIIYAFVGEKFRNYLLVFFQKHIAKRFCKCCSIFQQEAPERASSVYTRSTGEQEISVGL
Experimental: Cloning of CCR5 gene was carried out by PCR (polymerase chain reaction) from human spleen cDNA. With using 0.5 ng of spleen cDNA (Toyobo, QUICK-Clone cDNA) as template, PCR was performed in DNA Thermal Cycler 480 (Perkin-Elmer) (reaction conditions: 30 cycles of 95° C. for 1 minute, 60° C. for 1 minute, and 75° C. for 5 minutes) by adding primer set, 5'-CAGGATCCGATG […]-3' (25 pmol) and 5'-TCTAGATCACAAGCC CACAGATATTTCCTGCTCC-3' (25 pmol), which were designed referring to nucleotide sequence of CCR5 gene reported by Samson et al. (Biochemistry, 35(11), 3362-3367 (1996)) and by using TaKaRa EX Taq (Takara Shuzo). The resultant PCR product was subjected to agarose gel electrophoresis to collect about 1.0 kb DNA fragment, which was subjected to Original TA Cloning Kit (Funakoshi) to carry out cloning of CCR5 gene.
The plasmid obtained in the above (1) was digested with restriction enzymes XbaI (Takara Shuzo) and BamHI (Takara Shuzo) and subjected to agarose gel electrophoresis to collect about 1.0 kb DNA fragment. The DNA fragment was mixed with plasmid pcDNA3.1 (Funakoshi) for expression in animal cells, said plasmid being digested with XbaI and BamHI, and they were ligated with DNA Ligation Kit Ver.2 (Takara Shuzo). The resulting plasmid was subjected to transformation of competent cell of E. coli JM109 (Takara Shuzo) to obtain plasmid pCKR^5.
CHO-K1 cells were grown in 750 ml of tissue culture flask (Becton Dickinson) using Ham's F12 medium (Nihon Pharmaceutical) containing 10% fetal calf serum (Life Tech Oriental) and took off with 0.5 g/L trypsin-0.2 g/L EDTA (Life Tech Oriental). The cells were washed with PBS (Life Tech Oriental), centrifuged (1000 rpm, 5 minutes), and suspended in PBS. With using Gene Pulser (Bio-Rad Laboratories), DNA was introduced into the cells under the conditions shown below. That is, to the cuvette of 0.4 cm gap were added 8×10^6 cells and 10 μg of plasmid pCKR^5 for expression of human CCR5, and electroporation was carried out under 0.25 kV of voltage and 960 μF of capacitance. The cells were transferred into Ham's F12 medium (Nihon Pharmaceutical) containing 10% fetal calf serum, and cultivated for 24 hours. The cells were again took off and centrifuged, and suspended in Ham's F12 medium (Nihon Pharmaceutical) containing 10% fetal calf serum and 500 μg/ml of geneticin (Life Tech Oriental). The suspension was diluted to give 10^4 cells/ml of the suspension, which was inoculated on 96 well plate (Becton Dickinson) to give geneticin resistant cells. The resulting geneticin resistant cells were cultivated in 96 well plate (Becton Dickinson), and cells expressing CCR5 were selected from the geneticin resistant cells. That is, in assay buffer (Ham's F12 medium containing 0.5% BSA and 20 mM HEPES (Wako Pure Chemical, pH7.2) to which was added 200 pM of [^125 I]-RANTES (Amersham) as ligand, binding reaction as carried out at room temperature for 40 minutes, and the buffer was washed with cooled PBS. To the buffer was added 50 μl/well of 1M NaOH, and the mixture was stirred. Radioactivity was determined with γ-counter to select CHO/CCR5 cells which specifically bind to the ligand.
The CHO/CCR5 were inoculated on 96 well microplate (5×10^4 cells/well) and cultivated for 24 hours. The medium was removed by means of suction, and to each well was added assay buffer containing Test Compound (1 μM) and then 100 pM of [^125 I]-RANTES (Amersham) as ligand. Binding assay was carried out at room temperature for 30 minutes, and assay buffer was removed by means of suction. Each well was washed twice with cooled PBS, and 200 μl of Microscint-20 (Packard Instrument, Inc.) was added to each well. Radio-activity was determined with Top-Count Micro Scintillation Counter (Packard Instrument, Inc.).
According to the method described above, inhibition rate of Test Compound (whose number is referred to in the following Examples) to CCR5 binding.

[2] = tested on: HIV-1; experiment: Inhibitory Effect on HIV-1 Infection to MAGI^- CCR5 Cell; assay type: cell-based, HIV-1 BA-L; details: MAGI-CCR5 cells, 2 days
Experimental: The plasmid where β-galactosidase gene was ligated downstream of HIV-1 LTR was introduced into CD4 positive HeLa cell, to which human CCR5 was further introduced to obtain transformant MAGI^- CCR5. By using said transformant MAGI^- CCR5, degree of HIV-1 infection was calculated from β-galactosidase activity (blue color due to decomposition of 5-bromo-4-chloro-3-indolyl-β-D-galactopyranoside).
Specifically, MAGI-CCR5 cells were suspended in DMEM medium containing 10% serum to prepare 5×10^4 cells/ml suspension. To each well of 96 well plate was inoculated 200 μl of the suspension, and the cells were cultivated at 37° C. overnight. The medium was removed by means of suction, and to the residue was added 100 μl of the above medium containing 1.6μM of Test Compound 96 or 0.064 μM of Test Compound 248 and 100 μl of the above medium containing 300 PFU of HIV-1 BA-L cells. The cells were cultivated at 37° C. for 2 days. The medium was removed by means of suction. To the residue was added 200 μl of cell fixative (PBS containing 1% formaldehyde and 0.2% glutaraldehyde), and the mixture was allowed to stand at room temperature for 5 minutes and washed twice with PBS. […] The number of blue cells was counted by microscope and defined as the number of cells infected with HIV-1.

[3] = tested on: HIV-1; experiment: Inhibitory Effect on HIV-1 Infection to Human PBMC; assay type: cell-based, HIV-1 BA-L; details: 7 days, p24 antigen ELISA
Experimental: From normal person human peripheral blood mononuclear cells (PBMC) were separated, and the cells were stimulated with 10 μg/ml of PHA (Phytohemaglutinin) and 20U/ml of interleukin-2 (IL-2) for 3 days. The cells were suspended in RPMI-1640 medium containing 20% serum to prepare 1×10^6 /ml suspension. To the suspension were infected HIV-1 BA-L cells (20 ng as an amount of p24 antigen), and viruses were absorbed at 37° C. for 2 hours. The cells were washed and suspended in RPMI-1640 medium containing 20% serum and IL-2 20 U/ml to prepare 1×10^5 /ml suspension. To the PBMC suspension was added the same amount of a solution which contains 2.0 μM of Test Compound 96 or 0.32 μM of Test Compound 248, and the cells were cultivated at 37° C. for 7 days in carbon dioxide gas incubator. The amount of p24 antigen in supernatant of the cultivated medium was determined by enzyme-linked immunosorbent assay (ELISA) and defined as degree of HIV-1 infection.

| inhibition at 1 µM [1] [%] | SMILES | further results |
| --- | --- | --- |
| 100 | Cc1ccc(-c2ccc3c(c2)C=C(C(=O)Nc2ccc(CC[N+]4(C)CCCCC4)cc2)CCO3)cc1 [Compound 100, N-((7-(4-methylphenyl)-2,3-dihydro-1-benzoxepin-4-carbonyl)-2-(4-aminophenyl)ethyl)-N-methylpiperidinium iodide] | – |
| 88 | Cc1ccc(-c2ccc3c(c2)C=C(C(=O)Nc2ccc(C[N+]4(C)CCCCC4)cc2)CC3)cc1 [Compound 16, 1-methyl-1-[4-[7-(4-methylphenyl)-3,4-dihydronaphthalene-2-carboxamido]benzyl]piperidinium iodide] | – |
| 99 | CC(C)(C)c1ccc(-c2ccc3c(c2)C=C(C(=O)Nc2ccc(CP4(=O)CCCCC4)cc2)CCO3)cc1 [Compound 180, N-(4-(pentamethylene)phosphorylmethyl-phenyl)-7-(4-tert-butylphenyl)-2,3-dihydro-1-benzoxepine-4-carboxamide] | – |
| 96 | Cc1ccc(-c2ccc3c(c2)C=C(C(=O)Nc2ccc(C[N+](C)(C)C4CCC(=O)CC4)cc2)CCO3)cc1 [Compound 249, N,N-dimethyl-N-(4-(((7-(4-methylphenyl)-2,3-dihydro-1-benzoxepin-4-yl)carbonyl)amino)benzyl)-N-(4-oxocyclohexyl)ammoniumchloride] | – |
| 96 | CCOc1ccc(-c2ccc3c(c2)C=C(C(=O)Nc2ccc(C[N+](C)(C)C4CCOCC4)cc2)CCO3)cc1 [Compound 250, N-(4-(((7-(4-ethoxyphenyl)-2,3-dihydro-1-benzoxepin-4-yl)carbonyl)amino)benzyl)-N,N-dimethyl-N-(4-tetrahydropyranyl)ammonium chloride] | – |
| 100 | Cc1ccc(-c2ccc3c(c2)C=C(C(=O)Nc2ccc(C[N+]4(C)CCCCC4)cc2)CCC3)cc1 [Compound 92, 1-(N-(2-(4-methylphenyl)-6,7-dihydro-5H-benzocycloheptene-8-carbonyl)-4-aminobenzyl)-1-methylpiperidinium iodide] | – |
| 73 | Cc1ccc(-c2ccc3c(c2)C=C(C(=O)Nc2ccc(CP4(=O)OCCCO4)cc2)CCO3)cc1 [Reference Example 51, 2-(4-(7-(4-methylphenyl)-2,3-dihydro-1-benzoxepin-4-carbonylamino)benzyl)-1,3,2-dioxaphosphorinane-2-oxide] | – |
| – | Cc1ccc(-c2ccc3c(c2)C=C(C(=O)Nc2ccc(C[N+]4(C)CCCCC4)cc2)CCO3)cc1 [Compound 97, 1-(N-(7-(4-methylphenyl)-2,3-dihydro-1-benzoxepin-4-carbonyl)-4-aminobenzyl)-1-methylpiperidinium chloride] | Inhibition Rate (%) to CCR5 binding [1]: 94% |
| 80 | Cc1ccc(-c2ccc(/C=C/C(=O)Nc3ccc(CP4(=O)CCCCC4)cc3)s2)cc1 [Compound 209, (E)-N-(4-pentamethylenephosphorylmethylphenyl)-3-[5-(4-methylphenyl)-thiophen-2-yl]acrylic amide] | – |
| 87 | Cc1ccc(-c2ccc3c(c2)C=C(C(=O)Nc2ccc(CN(C)C4CCOCC4)cc2)CCO3)cc1 [Compound 128, N-(4-(N-methyl-(N-tetrahydropyran-4-yl)aminomethyl)-phenyl)-7-(4-methylphenyl)-2,3-dihydro-1-benzoxepine-4-carboxamide] | – |

| SMILES | inhibition at 1 µM [1] [%] | further results |
| --- | --- | --- |
| Cc1ccc(-c2ccc3c(c2)C=C(C(=O)Nc2ccc(C[N+](C)(C)C4CCOCC4)cc2)CCC3)cc1 [Compound 248, N,N-dimethyl-N-(4-(((2-(4-methylphenyl)-6,7-dihydro-5H-benzocyclohepten-8-yl)carbonyl)amino)benzyl)-N-(4-tetrahydropyranyl)ammonium chloride] | 99 | inhibition rate on HIV-1 infection ([2]; 100 μl medium containing 0.064 μM Test Compound 248 plus 100 μl medium with 300 PFU HIV-1 BA-L): 100%; inhibition rate on HIV-1 infection ([3]; same amount of solution containing 0.32 μM Test Compound 248 added): 74% |
| Cc1ccc(-c2ccc3c(c2)C=C(C(=O)Nc2ccc(C[N+]4(C)CCCCC4)cc2)CCO3)cc1 [Compound 96, 1-(N-(7-(4-methylphenyl)-2,3-dihydro-1-benzoxepin-4carbonyl)-4-aminobenzyl)-1-methylpiperidinium iodide] | 93 | inhibition rate on HIV-1 infection ([2]; 100 μl medium containing 1.6 μM Test Compound 96 plus 100 μl medium with 300 PFU HIV-1 BA-L): 92%; inhibition rate on HIV-1 infection ([3]; same amount of solution containing 2.0 μM Test Compound 96 added): 96% |
